Results reported in publication PMC6155683, “Pharmacokinetics Studies of 12 Alkaloids in Rat Plasma after Oral Administration of Zuojin and Fan-Zuojin Formulas” (Molecules : A Journal of Synthetic Chemistry and Natural …, 2017).
Like-named read-outs stand apart in the source and are kept apart here.

Legend:
[1] = Stability of analytes in rat plasma under storage conditions; type: physicochemical; details: n = 6; for Stability RE, 3 freeze-thaw cycles / Stability RE, 30 days at −20 °C: rat plasma; for Stability RE, processed samples' stability: room temperature 24 h
Experimental: The stabilities of analytes in plasma were assessed by analyzing the QC samples at three concentration levels under the following storage conditions: after three freeze (−20 °C)-thaw (room temperature) cycles; stored at −20 °C for 30 days, and comparing the results with those of freshly prepared QC samples. Stabilities of the processed samples at room temperature for 24 h were also assessed.

[2] = PK study of the 12 alkaloids in rat plasma after oral administration of ZJ and FZJ extract (LC–MS/MS); type: in vivo; details: for AUC(0-t) / AUC(0-inf) / Cmax / MRT last / MRT inf / half-life / Tmax / Tsec (time of the secondary peak in C–T curve) / Csec (drug concentration of the secondary peak in C–T curve): rat plasma; for AUC(0-t) / AUC(0-inf) / Cmax / MRT last / MRT inf / half-life / Csec (drug concentration of the secondary peak in C–T curve): mean ± SD, n = 6; for AUC(0-t): read-out: AUC0→t; for AUC(0-inf): read-out: AUC0→∞; for Cmax: read-out: Cmax; for MRT last: read-out: MRT0→t (converted); for MRT inf: read-out: MRT0→∞ (converted); for half-life: read-out: t1/2; for Tmax: read-out: Tmax (converted)
Experimental: The time schedule included 15 time-points and six rats were sampled at each time-point. All the rats were orally administered with ZJ extract (suspended in water) at a dose of 3.38 g/kg body weight (dosages of the 12 alkaloids were shown in Table S4), equivalent to crude drug dose of 12 g/kg body weight. Blood samples were collected from the suborbital vein of the rats at 10, 20, 30, 60, 90, 120, 180, 240, 300, 330, 360, 480, 720, 1440, 2160 min after administration, and centrifuged immediately at 5000 rpm for 10 min. The plasma samples were stored at −20 °C until analysis.
Similarly, the time schedule of other rats included 15 time-points and six rats were orally administered with FZJ extract at a dose of 3.76 g/kg body weight (also equivalent to crude drug dose of 12 g/kg body weight, Table S4). Blood samples were collected and treated as mentioned above in the PK study of ZJ extract.
PK parameters of the 12 alkaloids including AUC0→t, AUC0→∞, mean retention time (MRT0→t, MRT0→∞), and elimination half-life (t1/2) were calculated with non-compartmental method by DAS 2.0 software (Mathematical Pharmacology Professional Committee of China, Shanghai, China). Maximum plasma drug concentration (Cmax) and time to reach the maximum plasma drug concentration (Tmax) were observed directly from the detected C–T data. The results were expressed as arithmetic mean ± standard deviation (SD).

[3] = Dose modified systemic exposure (AUC0→∞/D, Cmax/D)
Experimental: Because the alkaloids content in ZJ and FZJ were no longer linear with the proportion of CR and EF after extraction process, AUC0→∞/D (ratio of AUC0→∞ and dose) and Cmax/D (ratio of Cmax and dose) were calculated to estimate the dose modified systemic exposure levels of the 12 alkaloids (Table 3). […] Physicochemical properties of these alkaloids had been calculated in silico to predict their human colon adenocarcinoma cell (Caco-2) permeability according to the three-property based rule (3PRule). Polar surface area (PSA), logarithm of the n-octanol/water distribution coefficient (LogD), molecular weight (MW), hydrogen bond donors (HBD), hydrogen bond acceptors (HBA), number of free rotatable bonds (NRB) and molar solubility (S) of the alkaloids were retrieved from SciFinder® (American Chemical Society).

[4] = Two-compartment model fitting of C–T curves (DAS 2.0); type: in vivo, rat
From the text: Double peaks in C–T curves were observed repeatedly in the PK study of ZJ and related TCM prescriptions, but explanations to the phenomenon were still ambiguous. Generally, possible reasons for the double peak phenomenon could be summarized as follows: (a) enterohepatic circulation; […] (c) irregular pattern of gastric emptying. […] Moreover, Tmax of the alkaloids after administration of ZJ extract were deferred from that of FZJ administration. […] It probably play a major role in the double peak phenomenon, since the GI motility can affect the drug absorption.

Row | Stability RE, 3 freeze-thaw cycles ([1]; high QC concentration) | Stability RE, 30 days at −20 °C ([1]; high QC concentration) | Stability RE, 3 freeze-thaw cycles ([1]; low QC concentration) | Stability RE, 30 days at −20 °C ([1]; low QC concentration) | Stability RE, 3 freeze-thaw cycles ([1]; medium QC concentration) | Stability RE, 30 days at −20 °C ([1]; medium QC concentration) | Stability RE, processed samples' stability ([1]; high QC concentration) | Stability RE, processed samples' stability ([1]; low QC concentration) | Stability RE, processed samples' stability ([1]; medium QC concentration) | AUC(0-t) ([2]; 3.38 g/kg, oral ZJ extract) | AUC(0-inf) ([2]; 3.38 g/kg, oral ZJ extract) | Cmax ([2]; 3.38 g/kg, oral ZJ extract) | MRT last ([2]; 3.38 g/kg, oral ZJ extract) | MRT inf ([2]; 3.38 g/kg, oral ZJ extract) | half-life ([2]; 3.38 g/kg, oral ZJ extract) | Tmax ([2]; 3.38 g/kg, oral ZJ extract) | Tsec (time of the secondary peak in C–T curve) ([2]; oral ZJ extract) | Csec (drug concentration of the secondary peak in C–T curve) ([2]; oral ZJ extract) | AUC0→∞/D (ratio of AUC0→∞ and dose) ([3]; oral ZJ extract) | Cmax/D (ratio of Cmax and dose) ([3]; oral ZJ extract) | SMILES | other results
1 | −12.48% | −14.51% | 6.73% | 6.72% | 7.48% | 9.66% | 10.05% | −3.71% | 10.68% | 24.7 ± 3.9 ng·h/mL | 27 ± 2.23 ng·h/mL | 2.46 ± 1.17 ng/mL | 10.1 h | 13.5 h | 8.93 ± 2.65 h | 5 h | 90 min | 2.42 ± 0.89 ng/mL | 44.44 | 3.98 | O=c1c2c3c(ccc2cc2n1CCc1cc4c(cc1-2)OCO4)OCO3 [8-oxocoptisine] | plasma concentrations at most time points ([2]; oral FZJ extract): below the LLOQ
2 | −8.93% | −2.71% | −14.18% | −13.41% | 0.37% | 0.36% | −7.73% | −7.14% | 9.35% | 14.3 ± 2.32 ng·h/mL | 16.6 ± 3.22 ng·h/mL | 2.38 ± 1.14 ng/mL | 7.51 h | 12.3 h | 9.88 ± 4.57 h | 1.5 h | 300 min | 1.85 ± 0.99 ng/mL | 97.25 | 13.92 | COc1cc2c(cc1OC)-c1cc3ccc4c(c3c(=O)n1CC2)OCO4 [8-oxoepiberberine] | plasma concentrations at most time points ([2]; oral FZJ extract): below the LLOQ
3 | −2.29% | −2.68% | −1.98% | 15.65% | 3.89% | −11.86% | −10.59% | 13.85% | −6.31% | 45.1 ± 7.46 ng·h/mL | 47.3 ± 7.36 ng·h/mL | 10.3 ± 5.45 ng/mL | 6.72 h | 8.55 h | 9.92 ± 2.06 h | 1.5 h | 300 min | 9.03 ± 4.31 ng/mL | 1688.21 | 369.29 | COc1cc2c(cc1OC)C(=O)NCC2 [corydaldine] | AIC (Akaike's information criterion method), two-compartment model fitting ([4]; oral FZJ extract): 3.947 ± 8.187; r^2 (correlation coefficient method), two-compartment model fitting ([4]; oral FZJ extract): 0.805 ± 0.066; AIC (Akaike's information criterion method), two-compartment model fitting ([4]; oral ZJ extract): 85.431 ± 9.718; r^2 (correlation coefficient method), two-compartment model fitting ([4]; oral ZJ extract): 0.243 ± 0.267; AUC(0-t) ([2]; 3.76 g/kg, oral FZJ extract): 2.86 ± 0.35 ng·h/mL; AUC(0-inf) ([2]; 3.76 g/kg, oral FZJ extract): 3.1 ± 0.46 ng·h/mL; Cmax ([2]; 3.76 g/kg, oral FZJ extract): 1.73 ± 0.58 ng/mL; MRT last ([2]; 3.76 g/kg, oral FZJ extract): 2.85 h; MRT inf ([2]; 3.76 g/kg, oral FZJ extract): 3.99 h; half-life ([2]; 3.76 g/kg, oral FZJ extract): 3.89 ± 1.29 h; Tmax ([2]; 3.76 g/kg, oral FZJ extract): 0.5 h; AUC0→∞/D (ratio of AUC0→∞ and dose) ([3]; oral FZJ extract): 310.00; Cmax/D (ratio of Cmax and dose) ([3]; oral FZJ extract): 173.00
4 | −12.84% | −6.2% | −3.64% | 13.92% | −6.12% | −13.86% | −10.77% | 2.78% | −8.85% | 68.5 ± 15.9 ng·h/mL | 69.6 ± 15.5 ng·h/mL | 13.7 ± 7.05 ng/mL | 10.8 h | 11.6 h | 6.11 ± 1.7 h | 5 h | 90 min | 5.51 ± 2.17 ng/mL | 0.62 | 0.12 | COc1cc2c(cc1OC)-c1cc3ccc4c(c3c[n+]1CC2)OCO4 [epiberberine] | AUC(0-t) ([2]; 3.76 g/kg, oral FZJ extract): 10.1 ± 1.09 ng·h/mL; AUC(0-inf) ([2]; 3.76 g/kg, oral FZJ extract): 11.4 ± 1.27 ng·h/mL; Cmax ([2]; 3.76 g/kg, oral FZJ extract): 4.82 ± 1.97 ng/mL; MRT last ([2]; 3.76 g/kg, oral FZJ extract): 3.89 h; MRT inf ([2]; 3.76 g/kg, oral FZJ extract): 5.26 h; half-life ([2]; 3.76 g/kg, oral FZJ extract): 3.92 ± 1.69 h; Tmax ([2]; 3.76 g/kg, oral FZJ extract): 3 h; AUC0→∞/D (ratio of AUC0→∞ and dose) ([3]; oral FZJ extract): 1.91; Cmax/D (ratio of Cmax and dose) ([3]; oral FZJ extract): 0.81
5 | 7.91% | 6.12% | −19.16% | 8.28% | 3.44% | −14.67% | 3.83% | 14.05% | −14.47% | 55.6 ± 12.4 ng·h/mL | 59 ± 13.3 ng·h/mL | 24.2 ± 12.9 ng/mL | 4.19 h | 6.52 h | 8.99 ± 6.39 h | 1 h | 240 min | 7.36 ± 4.89 ng/mL | 35.17 | 14.42 | CCCCC=CCCCCCCCc1cc(=O)c2ccccc2n1C [evocarpine] | AIC (Akaike's information criterion method), two-compartment model fitting ([4]; oral FZJ extract): 27.61 ± 10.527; r^2 (correlation coefficient method), two-compartment model fitting ([4]; oral FZJ extract): 0.740 ± 0.167; AIC (Akaike's information criterion method), two-compartment model fitting ([4]; oral ZJ extract): 78.232 ± 11.393; r^2 (correlation coefficient method), two-compartment model fitting ([4]; oral ZJ extract): 0.734 ± 0.201; AUC(0-t) ([2]; 3.76 g/kg, oral FZJ extract): 17.8 ± 3.99 ng·h/mL; AUC(0-inf) ([2]; 3.76 g/kg, oral FZJ extract): 19.6 ± 4.79 ng·h/mL; Cmax ([2]; 3.76 g/kg, oral FZJ extract): 4.07 ± 0.44 ng/mL; MRT last ([2]; 3.76 g/kg, oral FZJ extract): 7.04 h; MRT inf ([2]; 3.76 g/kg, oral FZJ extract): 9.3 h; half-life ([2]; 3.76 g/kg, oral FZJ extract): 6.91 ± 1 h; Tmax ([2]; 3.76 g/kg, oral FZJ extract): 0.5 h; AUC0→∞/D (ratio of AUC0→∞ and dose) ([3]; oral FZJ extract): 13.16; Cmax/D (ratio of Cmax and dose) ([3]; oral FZJ extract): 2.74
6 | −9.82% | −12.1% | −14.7% | −8.89% | 11.57% | −2.75% | −12.23% | −8.14% | −0.19% | 133 ± 18.5 ng·h/mL | 140 ± 17.8 ng·h/mL | 29.6 ± 15.2 ng/mL | 8.82 h | 11 h | 10.7 ± 2.82 h | 1.5 h | 300 min | 16.29 ± 8.38 ng/mL | 1687.47 | 357.11 | O=C1NCCc2cc3c(cc21)OCO3 [noroxyhydrastinine] | AIC (Akaike's information criterion method), two-compartment model fitting ([4]; oral FZJ extract): 16.505 ± 12.486; r^2 (correlation coefficient method), two-compartment model fitting ([4]; oral FZJ extract): 0.802 ± 0.128; AIC (Akaike's information criterion method), two-compartment model fitting ([4]; oral ZJ extract): 118.137 ± 17.623; r^2 (correlation coefficient method), two-compartment model fitting ([4]; oral ZJ extract): 0.313 ± 0.350; AUC(0-t) ([2]; 3.76 g/kg, oral FZJ extract): 4.95 ± 0.65 ng·h/mL; AUC(0-inf) ([2]; 3.76 g/kg, oral FZJ extract): 5.37 ± 0.73 ng·h/mL; Cmax ([2]; 3.76 g/kg, oral FZJ extract): 3.17 ± 1 ng/mL; MRT last ([2]; 3.76 g/kg, oral FZJ extract): 3.03 h; MRT inf ([2]; 3.76 g/kg, oral FZJ extract): 5.25 h; half-life ([2]; 3.76 g/kg, oral FZJ extract): 4.06 ± 2.93 h; Tmax ([2]; 3.76 g/kg, oral FZJ extract): 0.5 h; AUC0→∞/D (ratio of AUC0→∞ and dose) ([3]; oral FZJ extract): 268.50; Cmax/D (ratio of Cmax and dose) ([3]; oral FZJ extract): 158.50
